“Also recorded” adds a separate entry of the source.
Assays:
ODN = assay: Complex formation between CBS and ODN (agarose gel electrophoresis); assay type: binding; settings: 3% agarose gel, RPMI, excess positive charge (+/−) 2/1 and higher
From the text: The oligonucleotidic sequences used were antisense sequences (complementary) directed against HIV RNA. The length varied from 15 to 28 bases, being of phosphorothioate nature. The specific ODN used and their sequences are shown below in Table 1.
Several of the ODN were used fluorescent at the 5′ end. This is indicated by adding the letter F to its notation. Thus, “GF” makes reference to the fluorescent anti-gag ODN at end 5′, whilst “RF” makes reference to the anti-Rev ODN fluorescent at end 5′.
Different agarose concentrations were used to show the migration of the ODN and the dendriplexes, bearing in mind the small size of the ODN used. Finally, a 3% agarose concentration in TAE 1× was chosen as the best. The migration of non-fluorescent ODNs was compared with fluorescent ones, both migrating at the same height but the latter increasing the signal perceived considerably. Using them, it thus avoided the isotopic labelling of the ODN. A double well was manufactured to prepare these gels, to permit load volumes of 60 μl, of which 50 μl was mixture volume of the samples in RPMI and 10 μl load buffer with glycerol. As size marker, a ladder of 100 base pairs was used (Gibco BRL®).
For the complex formations in all the tests performed, both on gels and on cells the ratio between the number of positive and negative charges in said complex was taken. As published by different authors in studies with PAMAM dendrimers, it is necessary that the complex formed has an excess positive charge to facilitate its binding to the cell membrane glycoproteins, negatively charged, thus starting the endocytosis process. Likewise, an excess of positive charge is added to ensure the formation of the dendrimer-DNA complex. Therefore, the complexes between the CBS dendrimers and the different nucleic acids were formed in excess number of positive charges (provided by the CBS) compared with negative charges (provided by the ODN). Nevertheless, different charge ratios were tested, making the calculations based in the number of dendrimer charges (fixed) and the number of negative charges of the ODN (also fixed). The 2/1 ratio of positive/negative charges was fixed as sufficient in all dendrimers to form the complexes with a total positive charge, although in some experiments a balance was provided of an equal number of negative charges as positive charges or excess negative charges.
In all the tests, a complex formation volume of 60 μl was used, using phenol red without RPMI serum as support medium.
Tests of complex formation were used with the dendrimers of the invention IM8, ClNH4, NN, Phe and IM16.
The synthesis process of the CBS used in this work begins from an initial nucleus of common structure, which is ended functionalizing in the periphery by the use of different functional groups, which are those which provide the positive charge to the dendrimer and determine the differences between themselves, the dendrimeric nucleus being of apolar nature. Since some of the bonds of the functional groups used to the dendrimeric nucleus could be unstable in aqueous solution, tests were performed to determine if the DNA retention in agarose gels and, therefore, the complex formation between the CBS and the DNA could be due to the total dendrimer structure being conserved or in contrast, the terminal functional groups came away from the moiety of the dendrimeric core which are responsible for the DNA retention. For this, gels were used in which complexes were formed between the ODNs and the integral CBS and those formed supposedly between the ODNs and the terminal functional groups with which the carbosilane skeleton had functionalized, in this case quaternized dimethylethanolamine. As has previously been commented, those positively charged molecules, which are bound to the dendrimer as terminal functional groups, are those which give the dendrimer its charge. As control, the mixtures of ODN-dendrimers, ODN-monomers and ODN alone were compared. […]

plasmid Nf-kappaB-luc = assay: Capacity to form complexes with large-sized DNA (plasmid); assay type: binding; settings: charge ratio (+/−)=6/1 manages to retain DNA migration
Procedure: In a similar form to the previous experiments, electrophoresis was carried out with different samples, placing them a ladder type marker which measures up to 5000 pb in the well previous to it.

[1] = Dendrimer-drug binding test (polyacrylamide gel delay), methotrexate; settings: dendrimer 100 μM, charge ratios 1+/1− to 8+/1−, 37° C., 1 hour
Procedure: (§1) The drugs chosen to perform the tests, all with at least one negative charge at physiological pH, were: • Methotrexate (sodium salt): • 1 charge (−) • Supplying laboratory: Almirall • Presentation: 25 mg/ml solution • Excipients: NaCl, NaOH, HCl, double-distilled H2O • Heparin (sodium salt) • Several charges (−) • Supplying laboratory: Rovi • Presentation: 10 mg/ml solution (1000 U) • Excipients: methyl p-oxybenzoate, propyl p-oxybenzoate, NaCl, double-distilled H2O • Insulin (recombinant human insulin) • 4 charges (−) • Supplying laboratory: Novo Nordisk • Product trade name: Actrapid • Presentation: 3.5 mg/ml solution (100 U) • Excipients: ZnCl2, HCl, NaOH, double-distilled H2O
(§2) The determination of the bond and complex formation between the dendrimer and the drug was performed by evaluating the delay in the polyacrylamide gel of the dendrimer bound to drug with respect to the free dendrimer: • Complex formation: It is performed in a final volume of the mixture of 30 μl, which is the maximum volume to load in the gel. To do this, one starts from the necessary quantity of dendrimer that provides a perfectly identifiable band by staining with silver nitrate in the gel once the electrophoresis has been carried out: 20 μl of a 100 μM solution, which corresponds to […] molecules. The drug is added in the 10 μl at different concentrations to produce the chosen (+) and (−) charge ratios, also determining the quantity of drug molecules present in the mixture. An incubation of said mixture was performed at 37° C. during 1 hour to give time for a more thermodynamically stable complex to form, although more time may be needed for its formation. Each complex is performed in duplicate. • Electrophoresis and gel staining: The gels used were 7.5% polyacrylamide/bisacrylamide, prepared with 1.5M Tris pH 8.8. Each electrophoresis was carried out at 90 volts during 4 hours, after which the gel was stained with silver nitrate and photographed. […]

[2] = Dendrimer-drug binding test (polyacrylamide gel delay), heparin; settings: dendrimer 100 μM, heparin 10, 1, 0.5, 0.1 U, 37° C., 1 hour
Procedure: as §1, §2

[3] = molecular target: T1, Insulin (recombinant human insulin) (Homo sapiens, UniProt P01308); assay: Dendrimer-drug binding test (polyacrylamide gel delay), insulin; settings: dendrimer 100 μM, insulin 1, 0.5, 0.1, 0.05 U, 37° C., 1 hour
T1 construct: Despite having its molecular weight (5825 g/mol) and establishing an average of 4 (−) charges; purchased Novo Nordisk Actrapid (trade name; no catalogue number given)
T1 sequence (P01308 25-54 limits assumed): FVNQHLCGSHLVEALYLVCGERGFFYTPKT
T1 sequence (P01308 90-110 limits assumed): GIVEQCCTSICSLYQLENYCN
Procedure: as §1, §2

| Structure (SMILES) | complex formation with ODN (retention of DNA migration in gel) (ODN) | complex formation with plasmid (plasmid Nf-kappaB-luc) | dendrimer-methotrexate complex formation (delay in gel) [1] | dendrimer-heparin complex formation (delay in gel) [2] | dendrimer-insulin complex formation (delay in gel) [3] |
| --- | --- | --- | --- | --- | --- |
| C[Si](C)(CCCN)CCC[Si](C)(CCC[Si](C)(C)CCCN)CCC[Si](CCC[Si](C)(CCC[Si](C)(C)CCCN)CCC[Si](C)(C)CCCN)(CCC[Si](C)(CCC[Si](C)(C)CCCN)CCC[Si](C)(C)CCCN)CCC[Si](C)(CCC[Si](C)(C)CCCN)CCC[Si](C)(C)CCCN.Cl.Cl.Cl.Cl.Cl.Cl.Cl.Cl [ClNH4, 2G-[Si(CH2)3NH3^+Cl^−]8] | capable of retaining the DNA also with all the charge ratios evaluated |  |  |  |  |
| C[N+](C)(C)CCO[Si](C)(C)CCC[Si](C)(CCC[Si](CCC[Si](C)(CCC[Si](C)(C)OCC[N+](C)(C)C)CCC[Si](C)(C)OCC[N+](C)(C)C)(CCC[Si](C)(CCC[Si](C)(C)OCC[N+](C)(C)C)CCC[Si](C)(C)OCC[N+](C)(C)C)CCC[Si](C)(CCC[Si](C)(C)OCC[N+](C)(C)C)CCC[Si](C)(C)OCC[N+](C)(C)C)CCC[Si](C)(C)OCC[N+](C)(C)C.[I-].[I-].[I-].[I-].[I-].[I-].[I-].[I-] [IM8, 2G-[Si(OCH2CH2NMe3^+I^−)]8] | capable of retaining the DNA; also recorded: capable of retaining the migration of all the ODN | capable of forming complexes with the plasmid used |  |  |  |
| C[N+](C)(C)CCO[Si](C)(CCC[Si](C)(CCC[Si](CCC[Si](C)(CCC[Si](C)(OCC[N+](C)(C)C)OCC[N+](C)(C)C)CCC[Si](C)(OCC[N+](C)(C)C)OCC[N+](C)(C)C)(CCC[Si](C)(CCC[Si](C)(OCC[N+](C)(C)C)OCC[N+](C)(C)C)CCC[Si](C)(OCC[N+](C)(C)C)OCC[N+](C)(C)C)CCC[Si](C)(CCC[Si](C)(OCC[N+](C)(C)C)OCC[N+](C)(C)C)CCC[Si](C)(OCC[N+](C)(C)C)OCC[N+](C)(C)C)CCC[Si](C)(OCC[N+](C)(C)C)OCC[N+](C)(C)C)OCC[N+](C)(C)C.[I-].[I-].[I-].[I-].[I-].[I-].[I-].[I-].[I-].[I-].[I-].[I-].[I-].[I-].[I-].[I-] [IM16, 2G-[Si(OCH2CH2NMe3^+I^−)2]8] | capable of retaining the DNA |  | complex is not formed | complex is formed | complex is formed |
| CN(CCO[Si](C)(C)CCC[Si](C)(CCC[Si](CCC[Si](C)(CCC[Si](C)(C)OCCN(C)CC[N+](C)(C)C)CCC[Si](C)(C)OCCN(C)CC[N+](C)(C)C)(CCC[Si](C)(CCC[Si](C)(C)OCCN(C)CC[N+](C)(C)C)CCC[Si](C)(C)OCCN(C)CC[N+](C)(C)C)CCC[Si](C)(CCC[Si](C)(C)OCCN(C)CC[N+](C)(C)C)CCC[Si](C)(C)OCCN(C)CC[N+](C)(C)C)CCC[Si](C)(C)OCCN(C)CC[N+](C)(C)C)CC[N+](C)(C)C.[I-].[I-].[I-].[I-].[I-].[I-].[I-].[I-] [NN, 2G-[Si(O(CH2)2N(Me)(CH2)2NMe3^+I^−)]8] | capable of forming complexes with the ODN |  | complex is formed | complex is formed | complex is formed |
| C[N+](C)(C)CCOc1cc(CO[Si](C)(C)CCC[Si](C)(CCC[Si](CCC[Si](C)(CCC[Si](C)(C)OCc2cc(OCC[N+](C)(C)C)cc(OCC[N+](C)(C)C)c2)CCC[Si](C)(C)OCc2cc(OCC[N+](C)(C)C)cc(OCC[N+](C)(C)C)c2)(CCC[Si](C)(CCC[Si](C)(C)OCc2cc(OCC[N+](C)(C)C)cc(OCC[N+](C)(C)C)c2)CCC[Si](C)(C)OCc2cc(OCC[N+](C)(C)C)cc(OCC[N+](C)(C)C)c2)CCC[Si](C)(CCC[Si](C)(C)OCc2cc(OCC[N+](C)(C)C)cc(OCC[N+](C)(C)C)c2)CCC[Si](C)(C)OCc2cc(OCC[N+](C)(C)C)cc(OCC[N+](C)(C)C)c2)CCC[Si](C)(C)OCc2cc(OCC[N+](C)(C)C)cc(OCC[N+](C)(C)C)c2)cc(OCC[N+](C)(C)C)c1.[I-].[I-].[I-].[I-].[I-].[I-].[I-].[I-].[I-].[I-].[I-].[I-].[I-].[I-].[I-].[I-] [Phe, 2G-[Si(OCH2—(C6H3)-3,5-(OCH2CH2NMe3^+I^−)2)]8] | capable of forming complexes with the ODN |  |  |  |  |
